Experimental findings from US10781177B2, “Pyridine compound and use thereof” (Nippon Soda Co., Ltd., priority 2016, dated 2020) are described below.

Test system in the first data set: not given
Test: not given
Conditions: not given
The melting point is the temperature, or range, at which the solid turns liquid. Compound `Cc1nc(C)c(Cc2cc(-c3ccc(C(F)(F)F)cc3)on2)c(OCc2ccccc2)c1C` [7-4] had a melting point of 118 to 121 °C.
Take `Cc1nc(C)c(Cc2cc(-c3ccc(C(F)(F)F)cc3)on2)c(O)c1C` [7-5]: the melting point came to 200 °C.
As for `CC(=O)Oc1c(C)c(C)nc(C)c1Cc1cc(-c2ccc(C(F)(F)F)cc2)on1` [7-6], the melting point is 170 to 173 °C.
`C=CCOc1c(C)c(C)nc(C)c1CN1C(=O)c2ccccc2C1=O` [7-7] yielded a melting point of 145 to 147 °C.
Compound `Cc1nc(C(C)C)c(Cc2ccc(-c3ccc(OC(F)(F)F)cc3)s2)c(O)c1C` [7-8] yielded a melting point of 250 °C.
Consider `Cc1nc(C(C)C)c(Cc2ccc3ccccc3c2)c(O)c1C` [7-11], for which the melting point lay in the range of 268 to 270 °C.
With `Cc1nc2cc(Cc3c(C(C)C)nc(C)c(C)c3O)ccc2s1` [7-13], the melting point is 284 to 286 °C.
In turn, `Cc1nc(C(C)C)c(Cc2ccc3c(c2)CCC3c2ccc(F)cc2)c(O)c1C` (stereo not shown) [7-15] gave a melting point of 260 to 262 °C.
Same read-out and setting: then `Cc1nc(C(C)C)c(Cc2cccc3c2CCC3c2ccc(F)cc2)c(O)c1C` (stereo not shown) [7-17], with 296 to 298 °C; and `Cc1nc(C(C)C)c(Cc2ccc3sc(C(F)(F)F)nc3c2)c(O)c1C` [7-19], with 273 to 274 °C; and `Cc1nc(C(C)C)c(Cc2ccc3ncccc3c2)c(O)c1C` [7-21], with 254 to 256 °C.
Compound `COC(=O)Oc1c(C)c(C)nc(C(C)C)c1Cc1ccc2ncccc2c1` [7-22] registered a melting point of 127 to 128 °C.
Turning to `Cc1nc(C(C)C)c(Cc2ccc3cc(C(F)(F)F)ccc3c2)c(O)c1C` [7-24], the melting point lay in the range of 268 to 269 °C.
The compound `Cc1nc(C(C)C)c(Cc2ccc3ccc(C(F)(F)F)nc3c2)c(O)c1C` [7-26] yielded a melting point of 290 to 292 °C.
Regarding `COC(=O)Oc1c(C)c(C)nc(C(C)C)c1Cc1ccc2ccc(C(F)(F)F)nc2c1` [7-27], the melting point fell in the range of 125 to 126 °C.
The compound `Cc1nc(C(C)C)c(Cc2ccc3c(c2)C(c2ccc(F)cc2)CC3)c(O)c1C` (stereo not shown) [7-28] had a melting point of 221 to 224 °C.
`Cc1nc(C(C)C)c(Cc2cccc3c2oc2ccccc23)c(O)c1C` [7-30]: the melting point was 300 °C.
The same measure, in the same setting: next, `COC(=O)Oc1c(C)c(C)nc(C(C)C)c1Cc1cccc2c1oc1ccccc12` [7-31]: 114 to 116 °C; `Cc1nc(C(C)C)c(Cc2ccc3sc4ccccc4c3c2)c(O)c1C` [7-32]: 300 °C.
The compound `COC(=O)Oc1c(C)c(C)nc(C(C)C)c1Cc1ccc2sc3ccccc3c2c1` [7-33] showed a melting point of 154 to 155 °C.
For `COCCC(=O)NC1CCc2cc(Cc3c(C(C)C)nc(C)c(C)c3O)ccc21` (stereo not shown) [7-34], the melting point lay in the range of 115 to 120 °C.
For the compound `COc1c(C)c(C)nc(C(C)C)c1Cc1ccc(C2CCC3(CC2)OCCO3)cc1` [7-42], the melting point lay in the range of 107 to 108 °C.
As for `CCO/N=C(/NC(=O)C1CCC(C)CC1)c1ccc(Cc2c(C(C)C)nc(C)c(C)c2O)cc1` (stereo not shown) [7-43], the melting point lay within 101 to 115 °C.
Consider `CCO/N=C(/NC(=O)C(F)(F)C(F)(F)F)c1ccc(Cc2c(C(C)C)nc(C)c(C)c2O)cc1` [7-45], for which the melting point was 210 to 212 °C.
Compound `CCO/N=C(/NC(=O)C(F)(F)C(F)(F)F)c1ccc(Cc2c(C(C)C)nc(C)c(C)c2OC(=O)OC)cc1` [7-46] gave a melting point of 98 to 100 °C.
In turn, `COC(=O)Oc1c(C)c(C)nc(C(C)C)c1Cc1ccc(C(=O)NC(=O)C2CCC(C)CC2)cc1` (stereo not shown) [7-47] had a melting point of 169 to 171 °C.
`COc1c(C)c(C)nc(C(C)C)c1Cc1ccc(NC(=O)CC(C)(C)C)cc1` [7-51] came in with a melting point of 154 to 155 °C.
`Cc1nc(C(C)C)c(Cc2ccc(NC(=O)CC(C)(C)C)cc2)c(O)c1C` [7-52] displayed a melting point of 300 °C.
On the same count and under the same terms, then `COC(=O)Oc1c(C)c(C)cc(C(C)C)c1Cc1ccc(-c2ccc(C(C)=NOC3CCC(C(F)(F)F)CC3)cc2)cc1` (stereo not shown) [7-53], with 58 to 59 °C.

The next data set relates to bean aphid. As to the kind of experiment: Efficacy confirmation test on bean aphid. The settings on record: 125 ppm sprayed on cowpea seedlings with bean aphid nymphs, 4th day after spraying; read-out: Mortality rate (converted). The data set is classed as in vivo. As to the method: (§1) An emulsion was prepared in the same manner as in Test Example 1. The emulsion was diluted with water so that the compound of the present invention is to be 125 ppm to obtain a chemical solution.
Cowpea plants were raised in No. 3 pots and inoculated with bean aphid nymphs on primary leaves. The chemical solution was sprayed on the cowpea seedlings. The cowpea seedlings were placed in a thermostatic chamber at a temperature of 25° C. and a humidity of 60%. On the 4th day after spraying, the life and death of the aphid were determined and the mortality rate was calculated. The test was performed in duplicate.
(§2) The mortality rate was calculated in the same manner as in Test Example 3.
A word on the mortality: it is the percentage killed. Regarding `COC(=O)Oc1c(C)c(C)nc(C)c1Cc1ccc(Oc2ccc(OC(F)(F)F)cc2)cc1` [1-3, methyl (2,3,6-trimethyl-5-((4-(4-(trifluoromethoxy)phenoxy)phenyl)methyl)-4-pyridyl) carbonate], the mortality at 125 ppm was 100%.
Consider `COC(=O)Oc1c(C)c(C)nc(C(C)C)c1Cc1ccc(Oc2ccc(OC(F)(F)F)cc2)cc1` [1-9, (2-isopropyl-5,6-dimethyl-3-((4-(4-(trifluoromethoxy)phenoxy)phenyl)methyl)-4-pyridyl) methyl carbonate], for which the mortality at 125 ppm was 100%.
For the compound `COC(=O)Oc1c(C)c(C)nc(C(C)C)c1Cc1ccc(-c2noc(C(F)(F)F)n2)cc1` [1-44, 2-isopropyl-5,6-dimethyl-3-(4-(5-(trifluoromethyl)-1,2,4-oxadiazole-3-yl)benzyl) pyridine-4-yl methyl carbonate], the mortality at 125 ppm is 100%.
Regarding `COC(=O)Oc1c(C)c(C)nc(C(C)C)c1Cc1ccc(-c2ccc(OC(F)(F)F)cc2)s1` [7-9], the mortality at 125 ppm was 100%.

In another data set the test system is Tetranychus kanzawai. The experiment in a line: Efficacy confirmation test on Tetranychus kanzawai. The data set is classed as in vivo. The settings on record: 125 ppm sprayed on kidney bean seedlings with female imagoes, 10th day after spraying, read-out: Mortality rate (converted). As to the method: as §1
Kidney bean plants were raised in 3 pots, and inoculated with 10 female imagoes of tetranychus kanzawai on primary leaves. The medicinal solution was sprayed on the kidney bean seedlings. The kidney bean seedlings were placed in a thermostatic chamber at a temperature of 25° C. and a humidity of 65%. On the 10th day after spraying, the survival and death of imagoes of tetranychus kanzawai were determined and the mortality rate was calculated. The test was performed in duplicate.
as §2
In the case of `COC(=O)Oc1c(C)c(C)nc(C)c1Cc1ccc(Oc2ccc(OC(F)(F)F)cc2)cc1` [1-3, methyl (2,3,6-trimethyl-5-((4-(4-(trifluoromethoxy)phenoxy)phenyl)methyl)-4-pyridyl) carbonate], the mortality at 125 ppm is 100%.
Regarding `COC(=O)Oc1c(C)c(C)nc(C(C)C)c1Cc1ccc(Oc2ccc(OC(F)(F)F)cc2)cc1` [1-9, (2-isopropyl-5,6-dimethyl-3-((4-(4-(trifluoromethoxy)phenoxy)phenyl)methyl)-4-pyridyl) methyl carbonate], the mortality at 125 ppm is 100%.
Turning to `COC(=O)Oc1c(C)c(C)nc(C(C)C)c1Cc1ccc(-c2noc(C(F)(F)F)n2)cc1` [1-44, 2-isopropyl-5,6-dimethyl-3-(4-(5-(trifluoromethyl)-1,2,4-oxadiazole-3-yl)benzyl) pyridine-4-yl methyl carbonate], the mortality at 125 ppm is 100%.
The same measure, in the same setting: then `COC(=O)Oc1c(C)c(C)nc(C(C)C)c1Cc1ccc2ccccc2c1` [7-12], with 100%; and `COC(=O)Oc1c(C)c(C)nc(C(C)C)c1Cc1ccc2c(c1)CCC2c1ccc(F)cc1` (stereo not shown) [7-16], with 100%; and `COC(=O)Oc1c(C)c(C)nc(C(C)C)c1Cc1ccc2sc(C(F)(F)F)nc2c1` [7-20], with 100%.
Consider `COC(=O)Oc1c(C)c(C)nc(C(C)C)c1Cc1ccc2nc(C(F)(F)F)ccc2c1` [7-25], for which the mortality at 125 ppm is 100%.
